Laboratory results reported in the supplement of paper PMC11616607.

Assays:
Assay in all cases: drug sensitivity score (DSS) from 5-point dose-response viability curve (DSS (area-under-curve based score)); higher = more sensitive (stronger growth inhibition or killing); extreme values may be limits of the assay
Details in all cases: exposure time: 72 h; concentration range: 5 concentrations over 10,000-fold range
[1] = system: CAOV3
Procedure, shortened: (§1)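 Drugs in DMSO or water were acoustically dispensed (Echo 550) into 384-well plates at five concentrations across a 10,000-fold range. Ovarian cancer and normal ovarian cells (1,500 per well) were then added, incubated for 3 days at 37°C with 5% CO2, and read for viability by CellTiter-Glo luminescence on a PHERAstar FS. From these readings, Breeze software derived a drug sensitivity score per cell line and drug, with higher values meaning more sensitive and zero meaning no response.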

[2] = system: COV318
Procedure, shortened: as §1

[3] = system: COV362
Procedure, shortened: as §1

[4] = system: HOSE1C
Procedure, shortened: as §1

[5] = system: HOSE2C
Procedure, shortened: as §1

[6] = system: JHOS2
Procedure, shortened: as §1

[7] = system: Kuramochi
Procedure, shortened: as §1

[8] = system: OV90
Procedure, shortened: as §1

[9] = system: OVCAR4
Procedure, shortened: as §1

[10] = system: OVCAR5
Procedure, shortened: as §1

[11] = system: OVCAR8
Procedure, shortened: as §1

[12] = system: Ovsaho
Procedure, shortened: as §1

| SMILES | drug sensitivity score [1] | drug sensitivity score [2] | drug sensitivity score [3] | drug sensitivity score [4] | drug sensitivity score [5] | drug sensitivity score [6] | drug sensitivity score [7] | drug sensitivity score [8] | drug sensitivity score [9] | drug sensitivity score [10] | drug sensitivity score [11] | drug sensitivity score [12] |
| --- | --- | --- | --- | --- | --- | --- | --- | --- | --- | --- | --- | --- |
| COc1c(C)cnc(Cn2cnc3c(Cl)nc(N)nc32)c1C [BIIB021] | 16 | 7 | 9.5 | 15 | 20.5 | 20.6 | 9 | 18.5 | 9.9 | 17.3 | 19.7 | 3.3 |
| CN(C)C(=O)c1ccc(S(=O)(=O)c2ccc(NC(=O)[C@@](C)(O)C(F)(F)F)c(Cl)c2)cc1 [AZD7545] | 1.1 | 0 | 0 | 0 | 0.4 | 0 | 0 | 0 | 0 | 0 | 2.2 | 0 |
| C[C@@H]1C[C@H]2[C@@H]3CCC4=CC(=O)C=C[C@]4(C)[C@@]3(F)[C@@H](O)C[C@]2(C)[C@@]1(O)C(=O)CO [Dexamethasone] | 0 | 0 | 0.5 | 0 | 0 | 0 | 0 | 0 | 0 | 0 | 0 | 0 |
| N[C@@H]1CCCN(c2c(/C=C3\SC(=O)NC3=O)cccc2-c2ccccc2)C1 [AZD1208] | 0 | 1.1 | 0 | 0.2 | 0 | 0.3 | 1.7 | 0.3 | 0 | 1.4 | 0.1 | 3.5 |
| CNC(=O)CN1CCC(Oc2cc3c(Nc4cccc(Cl)c4F)ncnc3cc2OC)CC1 [Sapitinib] | 6.8 | 0 | 0 | 0 | 0 | 0 | 0 | 0 | 0 | 1.7 | 0 | 0.7 |
| NS(=O)(=O)OC[C@@H]1C[C@@H](n2ccc3c(N[C@H]4CCc5ccccc54)ncnc32)C[C@@H]1O [Pevonedistat] | 25.6 | 3.5 | 8.7 | 17.2 | 22.6 | 15 | 7.8 | 16.2 | 2.6 | 6.3 | 16.3 | 6.1 |
| CN1CCC(CNc2ccc3ncc(-c4cccc(OC(F)(F)F)c4)n3n2)CC1 [SGI-1776] | 5.1 | 4.7 | 4.3 | 8 | 7.2 | 5.2 | 5.1 | 5.6 | 3.3 | 6.9 | 6 | 7.7 |
| Nc1nc2cc(-c3ccc4ncc(C(=O)N5CCOCC5)n4c3)ccc2o1 [Serabelisib] | 2.9 | 0 | 0 | 0 | 5.1 | 0 | 0 | 0.1 | 0 | 1.8 | 0 | 0.8 |
| CN1CCN(C2CCN(C(=O)Nc3cc(Oc4ccc(NC(=O)C5(C(=O)Nc6ccc(F)cc6)CC5)c(F)c4)ccn3)CC2)CC1 [Golvatinib] | 0 | 0 | 0 | 0 | 0 | 0 | 0.8 | 1.4 | 0 | 0.1 | 0 | 0 |
| CO[C@@H]1[C@H](N(C)C(=O)c2ccccc2)C[C@H]2O[C@]1(C)n1c3ccccc3c3c4c(c5c6ccccc6n2c5c31)C(=O)NC4 [Midostaurin] | 17.7 | 8.1 | 5 | 11.7 | 15.1 | 9.7 | 7.2 | 12.7 | 8.5 | 5.3 | 7 | 14.1 |
| CCS(=O)(=O)N1CC(CC#N)(n2cc(-c3ncnc4[nH]ccc34)cn2)C1 [Baricitinib] | 0 | 0 | 0 | 0 | 0 | 0 | 0 | 0 | 0 | 0 | 0 | 0 |
| CCNC(=O)c1noc(-c2cc(C(C)C)c(O)cc2O)c1-c1ccc(CN2CCOCC2)cc1 [Luminespib] | 16.8 | 11.6 | 13.8 | 23.1 | 23 | 18.8 | 14.4 | 17.2 | 9.8 | 15.2 | 18.8 | 8.7 |
| CNC(=O)c1cc(Oc2ccc(NC(=O)Nc3ccc(Cl)c(C(F)(F)F)c3)cc2)ccn1 [Sorafenib] | 0 | 0 | 0 | 0 | 0 | 0 | 0 | 0 | 0 | 0 | 0 | 0 |
| CC[C@]1(O)C[C@@H]2CN(CCc3c([nH]c4ccccc34)[C@@](C(=O)OC)(c3cc4c(cc3OC)N(C)[C@H]3[C@@](O)(C(=O)OC)[C@H](OC(C)=O)[C@]5(CC)C=CCN6CC[C@]43[C@@H]65)C2)C1 [Vinblastine] | 22.4 | 1.1 | 2.3 | 13.8 | 12.3 | 3.7 | 4.4 | 18.5 | 9.1 | 3 | 8.6 | 5.3 |
| CC(C)(C)c1cc(NC(=O)Nc2ccc(-c3cn4c(n3)sc3cc(OCCN5CCOCC5)ccc34)cc2)no1 [Quizartinib] | 0 | 0 | 0 | 0 | 0.8 | 0 | 0 | 0.2 | 1.5 | 0.8 | 2.2 | 0.2 |
| Nc1ccccc1NC(=O)c1ccc(CNc2nccc(-c3cccnc3)n2)cc1 [Mocetinostat] | 7.1 | 8.1 | 1.1 | 17.8 | 15.7 | 7.3 | 7 | 7.5 | 6.8 | 13.7 | 13 | 7.8 |
| O=C(Nc1c[nH]nc1-c1nc2ccc(CN3CCOCC3)cc2[nH]1)NC1CC1 [AT9283] | 16.9 | 1.1 | 4.4 | 2.4 | 7.4 | 3.5 | 3.5 | 2.6 | 6.8 | 4.6 | 3.1 | 5.2 |
| CC(=O)Nc1cccc(-n2c(=O)n(C3CC3)c(=O)c3c(Nc4ccc(I)cc4F)n(C)c(=O)c(C)c32)c1 [Trametinib] | 11.8 | 0 | 4.9 | 0 | 0 | 6.7 | 7.1 | 25 | 1.9 | 12.9 | 3.4 | 12.4 |
| CC1(C)CNc2cc(NC(=O)c3cccnc3NCc3ccncc3)ccc21 [Motesanib] | 0 | 1.1 | 0 | 0 | 0 | 0 | 2.1 | 0.3 | 0 | 0 | 0 | 3.5 |
| COc1cc2ncnc(Nc3ccc(F)c(Cl)c3)c2cc1OCCCN1CCOCC1 [Gefitinib] | 7.2 | 0.5 | 0.3 | 0 | 0.3 | 1.6 | 1.8 | 4 | 1.9 | 5.6 | 3.3 | 3.8 |
| COc1ccc(CCc2nc3cc(-c4c(C)noc4C)ccc3n2C[C@H](C)N2CCOCC2)cc1Cl [SGC-CBP30] | 3.7 | 3.1 | 0.2 | 11 | 6.1 | 1.7 | 6.6 | 3.4 | 2 | 2.9 | 5.7 | 6.6 |
| CC[C@]12C=CCN3CC[C@@]4(c5cc([C@@]6(C(=O)OC)C[C@@H]7C[C@@H](C(C)(F)F)CN(Cc8c6[nH]c6ccccc86)C7)c(OC)cc5N(C)[C@H]4[C@@](O)(C(=O)OC)[C@@H]1OC(C)=O)[C@@H]32 [Vinflunine] | 4.3 | 0.7 | 1.3 | 3.6 | 3.6 | 2.4 | 1.9 | 3.3 | 2.1 | 3.4 | 4.1 | 1.8 |
| CNc1ncc2cc(-c3cc(NC(=O)NCCC(C)(C)C)c(F)cc3C)c(C)nc2n1 | 7.9 | 0.8 | 4.2 | 4.2 | 5 | 10.3 | 8.7 | 24.4 | 3.7 | 11.3 | 9.9 | 8.9 |
| CCC(C)(C)C(=O)O[C@H]1C[C@@H](C)C=C2C=C[C@H](C)[C@H](CC[C@@H]3C[C@@H](O)CC(=O)O3)[C@H]21 [Simvastatin] | 0.1 | 0 | 0.4 | 8.7 | 8.8 | 0.2 | 1.3 | 1.5 | 0.7 | 0 | 2.9 | 3.5 |
| Cc1cn(-c2cc(NC(=O)c3ccc(C)c(Nc4nccc(-c5cnccn5)n4)c3)cc(C(F)(F)F)c2)cn1 [Radotinib] | 0 | 0 | 0 | 0 | 0 | 0 | 0.9 | 1.3 | 0 | 0 | 0 | 0 |
| O=c1[nH]cc(F)c(=O)[nH]1 [Fluorouracil] | 2 | 0 | 0 | 2.5 | 0 | 0 | 0.6 | 2.3 | 0 | 2.7 | 2.3 | 2.6 |
